Values after ≈ are worked out from the molar mass of the structure shown.
What was measured:
Format in all cases: functional
Bacillus cereus = experiment: Antibacterial activity against Bacillus cereus after 12 to 16 hrs by plate reader analysis
Ralstonia solanacearum [1] = experiment: Antibacterial activity against Ralstonia solanacearum after 12 to 16 hrs by plate reader analysis
Ralstonia solanacearum [2] = experiment: Antibacterial activity against Pseudomonas solanacearum after 12 to 16 hrs by plate reader analysis
Staphylococcus aureus = experiment: Antibacterial activity against Staphylococcus aureus after 12 to 16 hrs by plate reader analysis

SMILES	MIC (Bacillus cereus) [µg/mL]	MIC (Ralstonia solanacearum [1]) [µg/mL]	MIC (Ralstonia solanacearum [2]) [µg/mL]	MIC (Staphylococcus aureus) [µg/mL]
CCCC[n+]1ccc2c3ccccc3n3c(=O)ccc1c23.[I-]	125	62.5	62.5	62.5
CCC[n+]1ccc2c3ccccc3n3c(=O)ccc1c23.[I-]	> 125	> 125	> 125	> 125
O=c1ccc2c3c(cc[n+]2Cc2ccc(Cl)cc2)c2ccccc2n13.[Cl-]	15.6	15.6	15.6	7.81
C=CC[n+]1ccc2c3ccccc3n3c(=O)ccc1c23.[Br-]	125	62.5	62.5	62.5
O=c1ccc2c3c(cc[n+]2Cc2ccc(C(F)(F)F)cc2)c2ccccc2n13.[Cl-]	62.5	15.6	62.5	7.81
O=c1ccc2c3c(cc[n+]2Cc2ccc(F)cc2F)c2ccccc2n13.[Cl-]	31.2	31.2	7.81	0.98
O=c1ccc2c3c(cc[n+]2Cc2ccc(CBr)cc2)c2ccccc2n13.[Br-]	62.5	31.2	31.2	7.81
CCCCC[n+]1ccc2c3ccccc3n3c(=O)ccc1c23.[I-]	62.5	31.2	15.6	31.2
CC[n+]1ccc2c3ccccc3n3c(=O)ccc1c23.[I-]	> 125	> 125	> 125	> 125
Cc1ccc(C[n+]2ccc3c4ccccc4n4c(=O)ccc2c34)cc1.[Cl-]	15.6	31.2	7.81	1.95
O=C1CCc2nccc3c4ccccc4n1c23	15.6 (≈ 70.3 µM)	15.6 (≈ 70.3 µM)	7.81 (≈ 35.1 µM)	125 (≈ 562 µM)
O=c1ccc2c3c(cc[n+]2Cc2ccc(OCc4ccccc4)cc2)c2ccccc2n13.[Cl-]	15.6	7.81	3.91	0.98
CCCCCCCC[n+]1ccc2c3ccccc3n3c(=O)ccc1c23.[Br-]	62.5	31.2	7.81	0.98
O=c1ccc2c3c(cc[n+]2Cc2ccc(F)cc2)c2ccccc2n13.[Cl-]	31.2	31.2	15.6	1.95
O=c1ccc2c3c(cc[n+]2Cc2c(F)cccc2F)c2ccccc2n13.[Cl-]	15.6	15.6	7.81	0.98
CC(C)[n+]1ccc2c3ccccc3n3c(=O)ccc1c23.[I-]	> 125	> 125	> 125	> 125
Cc1ccccc1C[n+]1ccc2c3ccccc3n3c(=O)ccc1c23.[Cl-]	7.81	7.81	3.91	1.95
CC(C)C[n+]1ccc2c3ccccc3n3c(=O)ccc1c23.[I-]	> 125	> 125	62.5	125
Cc1cccc(C[n+]2ccc3c4ccccc4n4c(=O)ccc2c34)c1.[Cl-]	15.6	15.6	7.81	1.95
O=c1ccc2c3c(cc[n+]2Cc2ccccc2F)c2ccccc2n13.[Cl-]	7.81	15.6	3.91	1.95
O=C1CCC2c3c(c4ccccc4n31)CCN2Cc1ccccc1 (stereo unspecified)	> 125	> 125	> 125	> 125
O=c1ccc2nccc3c4ccccc4n1c23 [CANTHIN-6-ONE]	7.81 (≈ 35.5 µM)	7.81 (≈ 35.5 µM)	3.91 (≈ 17.8 µM)	31.2 (≈ 142 µM)
C[n+]1ccc2c3ccccc3n3c(=O)ccc1c23.[I-]	> 125	> 125	> 125	> 125
CC1(C)S[C@@H]2[C@H](NC(=O)[C@H](N)c3ccccc3)C(=O)N2[C@H]1C(=O)[O-].[Na+] [AMPICILLIN SODIUM]	3.91	7.81	7.81	3.91
O=c1ccc2c3c(cc[n+]2[O-])c2ccccc2n13	15.6 (≈ 66.2 µM)	15.6 (≈ 66.2 µM)	7.81 (≈ 33.1 µM)	15.6 (≈ 66.2 µM)
O=c1ccc2c3c(cc[n+]2Cc2ccccc2)c2ccccc2n13.[Cl-]	3.91	3.91	1.95	1.95
C[C@@H]1O[C@@H]1P(=O)([O-])[O-].[Na+].[Na+] [PHOSPHOMYCIN DISODIUM]	3.91	1.95	125	3.91
O=C1CCC2NCCc3c2n1c1ccccc31 (stereo unspecified)	> 125	> 125	> 125	> 125
O=c1ccc2c3c(cc[n+]2Cc2ccccc2)c2ccccc2n13.[Br-]	3.91	3.91	7.81	0.98

— ChEMBL document CHEMBL3745648, “Synthesis, in vitro antibacterial activities of a series of 3-N-substituted canthin-6-ones” (2016)
